Data from ChEMBL document CHEMBL1128364 (J Med Chem, 1995).

Experiments:
Rattus norvegicus = assay: In vivo activity for the anti-oxytocic activity.; assay type: functional, organism-based; conditions: read-out: pA2 (converted)
Oxytocin receptor [1] = target: T1, Oxytocin receptor (Rattus norvegicus, UniProt P70536); assay: In vitro activity for the anti-oxytocic activity with out Mg2+.; conditions: read-out: pA2 (converted)
T1 sequence (P70536 whole entry): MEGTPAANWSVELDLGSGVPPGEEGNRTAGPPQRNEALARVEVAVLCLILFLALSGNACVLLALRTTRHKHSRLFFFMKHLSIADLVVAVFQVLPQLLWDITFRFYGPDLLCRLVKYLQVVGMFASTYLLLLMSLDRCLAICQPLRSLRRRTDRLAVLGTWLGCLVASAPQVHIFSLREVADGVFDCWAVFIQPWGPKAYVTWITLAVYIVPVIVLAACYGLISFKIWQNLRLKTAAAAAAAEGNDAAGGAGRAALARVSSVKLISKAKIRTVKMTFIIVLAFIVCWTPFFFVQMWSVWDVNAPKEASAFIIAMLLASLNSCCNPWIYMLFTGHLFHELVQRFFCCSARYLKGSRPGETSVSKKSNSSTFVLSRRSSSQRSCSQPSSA

Vasopressin V1a receptor [2] = target: T2, Vasopressin V1a receptor (Rattus norvegicus, UniProt P30560); assay: Anti-vasopressor activity at V1a receptor; conditions: read-out: pA2 (converted)
T2 sequence (P30560 whole entry): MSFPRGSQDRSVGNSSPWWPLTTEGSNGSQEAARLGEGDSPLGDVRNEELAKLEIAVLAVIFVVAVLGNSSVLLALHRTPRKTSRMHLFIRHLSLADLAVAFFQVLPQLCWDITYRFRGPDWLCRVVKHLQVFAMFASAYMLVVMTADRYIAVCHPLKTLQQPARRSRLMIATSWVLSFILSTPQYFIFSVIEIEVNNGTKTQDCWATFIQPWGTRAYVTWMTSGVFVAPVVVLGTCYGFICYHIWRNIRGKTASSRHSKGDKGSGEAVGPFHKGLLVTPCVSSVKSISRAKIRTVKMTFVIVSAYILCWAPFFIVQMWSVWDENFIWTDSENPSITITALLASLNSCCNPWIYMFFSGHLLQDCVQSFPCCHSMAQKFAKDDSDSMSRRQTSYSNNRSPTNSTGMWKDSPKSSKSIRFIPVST

Oxytocin receptor [3] = target: T1, Oxytocin receptor; assay: In vitro activity was determined for the anti-oxytocic activity with 0.5 mM Mg2+.; conditions: read-out: pA2 (converted)
Vasopressin V2 receptor = Vasopressin V2 receptor (Rattus norvegicus, UniProt Q00788); assay: Antidiuretic activity at V2 receptor; assay type: tissue-based, Urine; conditions: read-out: pA2 (converted)
Chain of Vasopressin V2 receptor (Q00788 whole entry): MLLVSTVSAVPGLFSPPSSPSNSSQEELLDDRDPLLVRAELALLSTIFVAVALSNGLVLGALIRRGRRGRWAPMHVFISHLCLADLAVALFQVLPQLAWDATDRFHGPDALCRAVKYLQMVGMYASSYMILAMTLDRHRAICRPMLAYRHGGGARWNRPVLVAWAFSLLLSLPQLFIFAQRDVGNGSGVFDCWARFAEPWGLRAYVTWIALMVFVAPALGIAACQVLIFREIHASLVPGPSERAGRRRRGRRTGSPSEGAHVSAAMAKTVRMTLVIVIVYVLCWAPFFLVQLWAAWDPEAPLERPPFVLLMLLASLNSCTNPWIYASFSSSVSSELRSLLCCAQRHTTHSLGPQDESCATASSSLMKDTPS

Oxytocin receptor [4] = target: T1, Oxytocin receptor; assay: (§1) Compound was evaluated for the oxytocic activity with out Mg2+.; conditions: read-out: pA2 (converted)
Oxytocin receptor [5] = target: T1, Oxytocin receptor; assay: (§2) Compound was evaluated for the oxytocic activity with 0.5 mM Mg2+.; conditions: read-out: pA2 (converted)
Vasopressin V1a receptor [6] = target: T2, Vasopressin V1a receptor; assay: Compound was evaluated for the anti-vasopressor activity at V1a receptor..; conditions: read-out: pA2 (converted)
Oxytocin receptor [7] = target: T1, Oxytocin receptor; assay: In vitro activity for the anti-oxytocic activity with out Mg2+; conditions: read-out: pA2 (converted)
[8] = target: T3, Oxytocin receptor (Rattus norvegicus) (UniProt P70536); assay: as §2
T3 sequence (whole entry): T1 sequence (P70536 whole entry)

[9] = target: T3, Oxytocin receptor (Rattus norvegicus); assay: as §1
[10] = target: Vasopressin V2 receptor (Rattus norvegicus) (UniProt Q00788); assay: Antidiuretic activity at V2 receptor.; conditions: Urine
Chain of Vasopressin V2 receptor (Rattus norvegicus) (Q00788 whole entry): as above

COc1ccc(C[C@@H]2NC(=O)CC3(CCCCC3)SSC[C@H](C(=O)N3CCC[C@H]3C(=O)N[C@@H](CCCN=C(N)N)C(=O)NCC(N)=O)NC(=O)[C@H](CC(N)=O)NC(=O)[C@H](CCC(N)=O)NC(=O)[C@H](Cc3ccccc3)NC2=O)cc1
Kb (Rattus norvegicus): 251 nM
Kb (Oxytocin receptor [1]): 13.5 nM
Kb (Vasopressin V1a receptor [2]): 13.5 nM
Kb (Oxytocin receptor [3]): 25.1 nM
Kb (Vasopressin V2 receptor): 2880 nM

NC(=O)CC[C@@H]1NC(=O)[C@H](Cc2ccccc2)NC(=O)[C@H](Cc2ccc(O)cc2)NC(=O)[C@@H](N)CSSC[C@H](C(=O)N2CCC[C@H]2C(=O)N[C@@H](CCCN=C(N)N)C(=O)NCC(N)=O)NC(=O)[C@H](CC(N)=O)NC1=O
Kb (Oxytocin receptor [4]): 214 nM
Kb (Oxytocin receptor [5]): 5750 nM

COc1ccc(C[C@@H]2NC(=O)CC3(CCCCC3)SSC[C@@H](C(=O)N3CCC[C@H]3C(=O)N[C@@H](CCCN=C(N)N)C(=O)NCC(N)=O)NC(=O)[C@H](CC(N)=O)NC(=O)[C@H](CCC(N)=O)NC(=O)[C@H](Cc3ccccc3)NC2=O)cc1
Kb (Oxytocin receptor [3]): 57.5 nM
Kb (Vasopressin V1a receptor [6]): 2.4 nM
Kb (Oxytocin receptor [7]): 7.41 nM

CC[C@H](C)[C@@H]1NC(=O)[C@H](Cc2ccc(O)cc2)NC(=O)[C@@H](N)CSSC[C@@H](C(=O)N2CCC[C@H]2C(=O)N[C@@H](CC(C)C)C(=O)NCC(N)=O)NC(=O)[C@H](CC(N)=O)NC(=O)[C@H](CCC(N)=O)NC1=O
Oxytocic activity [8]: 486 U mg-1
Oxytocic activity [9]: 520 U mg-1
Antidiuretic activity [10]: 4 U mg-1
